Source: PMC4331650 (Biochimica et Biophysica Acta, 2014)
Positions count from the first letter of the chain named. Read-outs that look alike come from different tables or passages of the source.

Experiments:
CLC-K1/barttin = target: T1, CLC-K1/barttin (Rattus norvegicus, UniProt Q06393); experiment: NFA effect on WT CLC-K1/barttin, voltage clamp in Xenopus oocytes; assay type: cell-based
T1 sequence (Q06393 1-687): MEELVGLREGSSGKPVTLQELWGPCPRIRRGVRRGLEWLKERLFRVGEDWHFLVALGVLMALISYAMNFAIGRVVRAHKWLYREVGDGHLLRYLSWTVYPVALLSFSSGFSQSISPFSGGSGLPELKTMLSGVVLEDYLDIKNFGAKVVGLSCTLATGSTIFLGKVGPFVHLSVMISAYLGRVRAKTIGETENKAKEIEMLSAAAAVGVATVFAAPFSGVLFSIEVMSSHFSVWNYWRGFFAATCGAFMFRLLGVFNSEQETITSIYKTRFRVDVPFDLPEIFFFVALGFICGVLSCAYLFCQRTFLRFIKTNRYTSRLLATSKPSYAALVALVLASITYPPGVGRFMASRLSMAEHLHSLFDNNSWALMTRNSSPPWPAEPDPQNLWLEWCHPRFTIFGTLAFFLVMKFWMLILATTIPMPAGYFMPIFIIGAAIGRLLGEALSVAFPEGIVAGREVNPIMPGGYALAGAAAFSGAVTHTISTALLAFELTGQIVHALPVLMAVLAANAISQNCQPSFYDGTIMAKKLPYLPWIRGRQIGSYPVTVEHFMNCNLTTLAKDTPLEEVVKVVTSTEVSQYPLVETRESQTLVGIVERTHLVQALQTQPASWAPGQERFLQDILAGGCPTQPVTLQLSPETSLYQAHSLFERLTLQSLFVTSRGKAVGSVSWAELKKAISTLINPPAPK
T1 sequence (Q8WZ55 1-320 Y98A partner): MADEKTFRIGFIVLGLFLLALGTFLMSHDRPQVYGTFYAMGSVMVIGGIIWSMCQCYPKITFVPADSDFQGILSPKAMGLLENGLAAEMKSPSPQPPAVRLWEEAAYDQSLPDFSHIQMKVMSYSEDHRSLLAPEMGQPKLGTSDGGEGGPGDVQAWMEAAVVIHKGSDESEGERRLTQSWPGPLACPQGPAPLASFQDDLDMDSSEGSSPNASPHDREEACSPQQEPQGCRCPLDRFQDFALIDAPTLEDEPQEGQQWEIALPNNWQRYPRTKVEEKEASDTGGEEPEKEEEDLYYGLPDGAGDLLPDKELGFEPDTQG

WT CLC-Ka = target: T2, WT CLC-Ka (Homo sapiens, UniProt P51800); conditions: Xenopus oocytes, cited from earlier work
T2 sequence (P51800 1-687): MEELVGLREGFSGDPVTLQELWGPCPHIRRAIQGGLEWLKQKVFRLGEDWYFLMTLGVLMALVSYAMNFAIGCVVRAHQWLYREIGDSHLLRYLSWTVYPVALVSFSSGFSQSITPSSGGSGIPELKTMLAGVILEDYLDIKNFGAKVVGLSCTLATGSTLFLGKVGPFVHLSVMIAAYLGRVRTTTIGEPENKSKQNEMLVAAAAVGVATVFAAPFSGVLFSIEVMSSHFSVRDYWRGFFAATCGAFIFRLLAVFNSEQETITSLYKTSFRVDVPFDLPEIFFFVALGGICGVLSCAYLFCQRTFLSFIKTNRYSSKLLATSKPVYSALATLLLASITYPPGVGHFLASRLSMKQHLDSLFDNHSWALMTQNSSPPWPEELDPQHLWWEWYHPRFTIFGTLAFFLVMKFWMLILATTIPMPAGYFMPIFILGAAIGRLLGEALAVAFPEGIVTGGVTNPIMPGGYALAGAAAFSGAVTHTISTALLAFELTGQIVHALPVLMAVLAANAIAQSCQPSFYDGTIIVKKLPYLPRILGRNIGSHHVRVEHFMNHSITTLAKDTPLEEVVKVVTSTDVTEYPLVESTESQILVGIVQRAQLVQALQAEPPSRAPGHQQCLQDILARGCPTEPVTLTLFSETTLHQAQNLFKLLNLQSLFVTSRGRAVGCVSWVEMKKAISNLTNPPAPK
T2 sequence (Q8WZ55 1-320 Y98A partner): T1 sequence (Q8WZ55 1-320 Y98A partner)

N257A CLC-Ka = target: T3, N257A CLC-Ka (Homo sapiens, UniProt P51800, N257A); assay type: cell-based; conditions: 4 μM NFAext in the presence of 100 μM CPAint; −100 mV and 60 mV
T3 sequence (P51800 1-687 N257A): T2 sequence (P51800 1-687) with N257A
T3 sequence (Q8WZ55 1-320 Y98A partner): T1 sequence (Q8WZ55 1-320 Y98A partner)

Structure (SMILES): O=C(O)c1cccnc1Nc1cccc(C(F)(F)F)c1 [NFA, niflumic acid]
- currents relative to control conditions (CLC-K1/barttin; 10 μM NFA): about 80%
- currents relative to control conditions (CLC-K1/barttin; 200 μM NFA): ~45%
- effect on CLC-Ka currents (WT CLC-Ka; [NFA]ext higher than 0.5 mM): block
- effect on CLC-Ka currents (WT CLC-Ka; [NFA]ext ≤ 0.5 mM): increases
- effect of NFA on single channel conductance (N257A CLC-Ka): does not affect the conductance
